Patent US5089273A, “Ecteinascidins 729, 743, 745, 759A, 759B and 770” (priority 1990, dated 1992)
≈ marks a conversion by molar mass, not a printed value. Like-named read-outs stand apart in the source and are kept apart here.

Experiments:
M. luteus = test: Antimicrobial activity vs. M. luteus (disk zones of inhibition); format: cell-based; conditions: for zone of inhibition at 0.2 µg/disc: 200 ng/6.35-mm disk; for times less potent than ecteinascidins 729 and 743: relative to ecteinascidins 729 and 743
Protocol: (§1) The antimicrobial activities (vs. M. luteus) and the cytotoxic activities (vs. CV-1 cells) of the ecteinascidins and ecteinascidin 743 derivatives are shown in Table 1 and 2. […] All of the derivatives of ecteinascidin 743 that were prepared have antimicrobial and cytotoxic activities.

CV-1 cells = test: Cytotoxic activity vs. CV-1 cells (disk zones of inhibition); format: cell-based; conditions: for zone of inhibition at 0.05 µg/disc / zone of inhibition at 0.1 µg/disc / zone of inhibition at 0.2 µg/disc / zone of inhibition at 0.4 µg/disc / zone of inhibition at 0.8 µg/disc / zone of inhibition at 1.6 µg/disc: Cercopithecidae, read-out: Zones of Inhibition
Protocol: as §1

bacteria = test: Antibacterial Activity (disk zone of inhibition, Example 4); format: cell-based
Source text: | Zone of inhibition (mm)

Penicillium oxalicum = test: Antimicrobial Spectrum, zones of inhibition; format: cell-based; conditions: 5 μg/disk, 6.35-mm disk
Sarcina lutea sens. = test: Antimicrobial Spectrum, zones of inhibition; format: cell-based; conditions: Micrococcus luteus; 5 μg/disk; 6.35-mm disk
Saccharomyces cerevisiae = test: Antimicrobial Spectrum, zones of inhibition; format: cell-based; conditions: 5 μg/disk, 6.35-mm disk
P388 leukemia = test: In vivo P388 mouse leukemia test
Source text: Compounds of this invention are also active in vivo against P388 leukemia in mice. The P388 mouse leukemia test is described in detail in a publication by G. L. Neil et al., Cancer Treatment Reports, 63: 1971-1978 (1979).

Escherichia coli = test: Antimicrobial Spectrum, zones of inhibition; format: cell-based; conditions: 5 μg/disk, 6.35-mm disk
Staphylococcus aureus = test: Antimicrobial Spectrum, zones of inhibition; format: cell-based; conditions: 5 μg/disk, 6.35-mm disk
Bacillus subtilis syn = test: Antimicrobial Spectrum, zones of inhibition; format: cell-based; conditions: 5 μg/disk, 6.35-mm disk
Klebsiella pneumoniae = test: Antimicrobial Spectrum, zones of inhibition; format: cell-based; conditions: 5 μg/disk, 6.35-mm disk
Pseudomonas aeruginosa = test: Antimicrobial Spectrum, zones of inhibition; format: cell-based; conditions: 5 μg/disk, 6.35-mm disk
[1] = tested on: L1210 mouse leukemia cells; test: L1210 Tube Dilution Assay; format: cell-based
Source text: The L1210 tube dilution assay is described in detail in a publication by L. H. Li, et al., Cancer Research, 39:4816 (1979). ID50 and ID90 refer to the concentration of ecteinascidin needed to inhibit cell growth by […], respectively.

Bacillus subtilis = test: Antimicrobial Spectrum, zones of inhibition; format: cell-based; conditions: 5 μg/disk, 6.35-mm disk
Mycobacterium avium = test: Antimicrobial Spectrum, zones of inhibition; format: cell-based; conditions: 5 μg/disk, 6.35-mm disk
[2] = Micrococcus luteus, 400 ng/6.35-mm disk
[3] = Micrococcus luteus, 800 ng/6.35-mm disk
[4] = Micrococcus luteus, 1600 ng/6.35-mm disk

Work on `COc1cc2c(cc1OC(C)=O)CCN[C@]21CS[C@@H]2c3c(OC(C)=O)c(C)c4c(c3[C@H](COC1=O)N1[C@@H]2[C@H]2c3c(cc(C)c(OC)c3O)C[C@@H]([C@@H]1O)N2C)OCO4` [Monoacetyl, Acetylecteinascidin 743] yielded a zone of inhibition at 0.05 µg/disc (M. luteus; Micrococcus luteus, 50 ng/6.35-mm disk) of 10 mm, a zone of inhibition at 0.1 µg/disc (M. luteus; Micrococcus luteus, 100 ng/6.35-mm disk) of 12 mm and a zone of inhibition at 0.2 µg/disc (M. luteus; Micrococcus luteus) of 14 mm. The zone of inhibition at 0.4 µg/disc (M. luteus; [2]) was 20 mm, the zone of inhibition at 0.8 µg/disc (M. luteus; [3]) was 20 mm and the zone of inhibition at 1.6 µg/disc (M. luteus; [4]) was 28 mm. For the same compound, the “activity relative to ecteinascidin 743 (in words)” value (M. luteus; relative to the original compound, antimicrobial and cytotoxic) was “enhanced activity over the original compound”, the zone of inhibition at 0.05 µg/disc (CV-1 cells; 50 ng/6.35-mm disk) was 18 mm and the zone of inhibition at 0.1 µg/disc (CV-1 cells; 100 ng/6.35-mm disk) was 22 mm. The zone of inhibition at 0.2 µg/disc (CV-1 cells; 200 ng/6.35-mm disk) was 22 mm, the zone of inhibition at 0.4 µg/disc (CV-1 cells; 400 ng/6.35-mm disk) was 25 mm and the zone of inhibition at 0.8 µg/disc (CV-1 cells; 800 ng/6.35-mm disk) was 28 mm. It also gave a zone of inhibition at 1.6 µg/disc (CV-1 cells; 1600 ng/6.35-mm disk) of 30 mm.
Work on `COc1cc2c(cc1OC)[C@@]1(CS[C@@H]3c4c(OC(C)=O)c(C)c5c(c4[C@H](COC1=O)N1[C@@H]3[C@H]3c4c(cc(C)c(OC)c4O)C[C@@H]([C@@H]1O)N3C)OCO5)NCC2` [Mono- -- O-methyl, Mono-O-methylecteinascidin 743] yielded a zone of inhibition at 0.2 µg/disc (M. luteus; Micrococcus luteus) of 8 mm, a zone of inhibition at 0.4 µg/disc (M. luteus; [2]) of 11 mm and a zone of inhibition at 0.8 µg/disc (M. luteus; [3]) of 14 mm. It also gave a zone of inhibition at 1.6 µg/disc (M. luteus; [4]) of 14 mm, a zone of inhibition at 0.05 µg/disc (CV-1 cells) of 13 mm and a zone of inhibition at 0.1 µg/disc (CV-1 cells) of 22 mm. The zone of inhibition at 0.2 µg/disc (CV-1 cells) was 20 mm, the zone of inhibition at 0.4 µg/disc (CV-1 cells) was 23 mm and the zone of inhibition at 0.8 µg/disc (CV-1 cells) was 25 mm. It also gave a zone of inhibition at 1.6 µg/disc (CV-1 cells) of 26 mm.
`COc1cc2c(cc1O)CCN[C@]21CS[C@@H]2c3c(OC(C)=O)c(C)c4c(c3[C@H](COC1=O)N1[C@@H]2[C@H]2c3c(cc(C)c(OC)c3O)C[C@@H]([C@@H]1C#N)N2C)OCO4` [Ecteinascidin 770] showed a zone of inhibition at 0.4 µg/disc (M. luteus; [2]) of 9 mm, a zone of inhibition at 0.8 µg/disc (M. luteus; [3]) of 12 mm and a zone of inhibition at 1.6 µg/disc (M. luteus; [4]) of 15 mm. For the same compound, the “times less potent than ecteinascidins 729 and 743” value (M. luteus) was “four to eight times less potent”, the zone of inhibition at 0.05 µg/disc (CV-1 cells; 50 ng/6.35-mm disk) was 10 mm and the zone of inhibition at 0.1 µg/disc (CV-1 cells; 100 ng/6.35-mm disk) was 14 mm. For the same compound, the zone of inhibition at 0.2 µg/disc (CV-1 cells; 200 ng/6.35-mm disk) was 16 mm, the zone of inhibition at 0.4 µg/disc (CV-1 cells; 400 ng/6.35-mm disk) was 20 mm and the zone of inhibition at 0.8 µg/disc (CV-1 cells; 800 ng/6.35-mm disk) was 24 mm. The zone of inhibition at 1.6 µg/disc (CV-1 cells; 1600 ng/6.35-mm disk) was 25 mm, the Zone of inhibition (bacteria; 0.1 μg/disk) was “trace” and the zone of inhibition at 1 µg/disc (bacteria; 1 μg/disk) was 14 mm.
For `COc1cc2c(cc1O)CCN[C@]21CS[C@@H]2c3c(OC(C)=O)c(C)c4c(c3[C@H](COC1=O)N1C[C@@H]3Cc5cc(C)c(OC)c(O)c5[C@H]([C@H]21)N3C)OCO4` [Ecteinascidin 745], the zone of inhibition at 5 µg/disc (Penicillium oxalicum) was 0 mm, the zone of inhibition at 5 µg/disc (Sarcina lutea sens.) was 18 mm and the “antimicrobial activity (in words)” value (M. luteus; dilutions accurate to within a factor of 2) was “greatly reduced activity”. For the same compound, the “times less potent than ecteinascidins 729 and 743” value (M. luteus) was about 32 times, the zone of inhibition at 5 µg/disc (Saccharomyces cerevisiae) was 0 mm and the T/C (P388 leukemia; 0.25 mg/kg, Example 6) was “ca. 100”. For the same compound, the “T/C (%)” value (P388 leukemia; 0.25 mg/kg, Table 4) was 111%, the “antitumor activity (in words)” value (P388 leukemia; mouse, in vivo) was “greatly reduced activity” and the zone of inhibition at 5 µg/disc (Escherichia coli) was 0 mm. The zone of inhibition at 5 µg/disc (Staphylococcus aureus) was 0 mm, the “cytotoxic activity (in words)” value (CV-1 cells) was “greatly reduced activity” and the zone of inhibition at 0.8 µg/disc (CV-1 cells; 800 ng/6.35-mm disk) was 9 mm. For the same compound, the zone of inhibition at 1.6 µg/disc (CV-1 cells; 1600 ng/6.35-mm disk) was 14 mm, the zone of inhibition at 5 µg/disc (Bacillus subtilis syn) was 0 mm and the Zone of inhibition (bacteria; 20 μg/disk) was “trace”. For the same compound, the zone of inhibition at 40 µg/disc (bacteria; 40 μg/disk) was 7 mm, the zone of inhibition at 5 µg/disc (Klebsiella pneumoniae) was 0 mm and the zone of inhibition at 5 µg/disc (Pseudomonas aeruginosa) was 0 mm. For the same compound, the IC90 ([1]; L1210, concentration needed to inhibit cell growth by 90 percent, in vitro, read-out: ID90 (the source's name)) was 0.19 µg/mL (≈ 0.255 µM), the IC50 ([1]; L1210, read-out: ID50) was 0.088 µg/mL (≈ 0.118 µM) and the zone of inhibition at 5 µg/disc (Bacillus subtilis) was 0 mm. It also gave a zone of inhibition at 5 µg/disc (Mycobacterium avium) of 0 mm.
In the case of `COc1cc2c(cc1O)CCN[C@]21C[S+]([O-])[C@@H]2c3c(OC(C)=O)c(C)c4c(c3[C@H](COC1=O)N1[C@H]2[C@H]2c3c(cc(C)c(OC)c3O)C[C@@H]([C@H]1O)N2C)OCO4` (some centres unmarked) [Ecteinascidin 759B], the “Zones of Inhibition” value (M. luteus; 400 ng/6.35-mm disk) is reported as 10 mm, the “Zones of Inhibition” value (M. luteus; 800 ng/6.35-mm disk) is reported as 13 mm and the “Zones of Inhibition” value (M. luteus; 1600 ng/6.35-mm disk) is reported as 15 mm. For the same compound, the “times less potent than ecteinascidins 729 and 743” value (M. luteus) was “four to eight times less potent”, the “Zones of Inhibition” value (CV-1 cells; 100 ng/6.35-mm disk) was 11 mm and the “Zones of Inhibition” value (CV-1 cells; 200 ng/6.35-mm disk) was 13 mm. The “Zones of Inhibition” value (CV-1 cells; 400 ng/6.35-mm disk) was 15 mm, the “Zones of Inhibition” value (CV-1 cells; 800 ng/6.35-mm disk) was 22 mm and the “Zones of Inhibition” value (CV-1 cells; 1600 ng/6.35-mm disk) was 22 mm. It also gave a Zone of inhibition (bacteria; 0.1 μg/disk) of 9 mm and a Zone of inhibition (bacteria; 1 μg/disk) of 15 mm.
